Laboratory results published in US12655116B2, “Substituted isophthalic acid diamides” (Bayer Aktiengesellschaft, priority 2020, dated 2026).

Legend:
VERPE [1] = test: Pre-emergence herbicidal action against VERPE; assay type: in vivo, Veronica persica; details: dosage 80 g/ha
How it was run: (§1)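 Pre-emergence soil-surface spray of formulated compound (WP or EC; 600 to 800 l/ha; 0.2% wetting agent) over seeds sown in sandy loam. After 3 weeks under greenhouse conditions, damage is estimated visually in percent against untreated plants.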

ECHCG [2] = test: Post-emergence herbicidal action against ECHCG; assay type: in vivo, Echinochloa crus-galli
How it was run: (§2)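 Spray, one-leaf stage: WP or EC compound in water, 600–800 l/ha, 0.2% wetting agent. Plants held about 3 weeks in the greenhouse, then visually rated in percent of kill compared with untreated controls.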

PHBPU [3] = test: Post-emergence herbicidal action against PHBPU; assay type: in vivo, Pharbitis purpurea; details: dosage 20 g/ha
How it was run: as §2

MATIN [4] = test: Pre-emergence herbicidal action against MATIN; assay type: in vivo, Matricaria inodora
How it was run: as §1

ALOMY [5] = test: Pre-emergence herbicidal action against ALOMY; assay type: in vivo, Alopecurus myosuroides; details: 80 g/ha, pre-emergence, scored visually after 3 weeks vs untreated controls (100% = plants have died, 0% = like control plants)
How it was run: as §1

VIOTR [6] = test: Post-emergence herbicidal action against VIOTR; assay type: in vivo, Viola tricolor
How it was run: as §2

ALOMY [7] = test: Post-emergence herbicidal action against ALOMY; assay type: in vivo, Alopecurus myosuroides; details: dosage 20 g/ha, visual assessment about 3 weeks after treatment vs untreated controls
How it was run: as §2

ABUTH [8] = test: Pre-emergence herbicidal action against ABUTH; assay type: in vivo, Abutilon theophrasti; details: for Pre-emergence action against ABUTH (herbicidal activity): 80 g/ha, scored visually after 3 weeks vs untreated controls (100% = plants have died, 0% = like control plants); for Pre-emergence action against ABUTH (herbicidal activity in percent): dosage 20 g/ha, scored visually after 3 weeks vs untreated controls, 100% = plants have died, 0% = like control plants
How it was run: as §1

PHBPU [9] = test: Pre-emergence herbicidal action against PHBPU; assay type: in vivo, Pharbitis purpurea; details: dosage 80 g/ha
How it was run: as §1

SETVI [10] = test: Pre-emergence herbicidal action against SETVI; assay type: in vivo, Setaria viridis; details: dosage 80 g/ha
How it was run: as §1

VERPE [11] = test: Post-emergence herbicidal action against VERPE; assay type: in vivo, Veronica persica
How it was run: as §2

VIOTR [12] = test: Pre-emergence herbicidal action against VIOTR; assay type: in vivo, Viola tricolor
How it was run: as §1

MATIN [13] = test: Post-emergence herbicidal action against MATIN; assay type: in vivo, Matricaria inodora
How it was run: as §2

POLCO = test: Pre-emergence herbicidal action against POLCO; assay type: in vivo, Polygonum convolvulus
How it was run: as §1

DIGSA [14] = test: Pre-emergence herbicidal action against DIGSA; assay type: in vivo, Digitaria sanguinalis
How it was run: as §1

ECHCG [15] = test: Pre-emergence herbicidal action against ECHCG; assay type: in vivo, Echinochloa crus-galli; details: 80 g/ha
How it was run: as §1

AVEFA = test: Pre-emergence herbicidal action against AVEFA; assay type: in vivo, Avena fatua; details: 80 g/ha, pre-emergence
How it was run: as §1

AMARE [16] = test: Pre-emergence herbicidal action against AMARE; assay type: in vivo, Amaranthus retroflexus
How it was run: as §1

ABUTH [17] = test: Post-emergence herbicidal action against ABUTH; assay type: in vivo, Abutilon theophrasti; details: dosage 20 g/ha, visual assessment about 3 weeks after treatment vs untreated controls
How it was run: as §2

DIGSA [18] = test: Post-emergence herbicidal action against DIGSA; assay type: in vivo, Digitaria sanguinalis
How it was run: as §2

AMARE [19] = test: Post-emergence herbicidal action against AMARE; assay type: in vivo, Amaranthus retroflexus; details: 20 g/ha, visual assessment about 3 weeks after treatment, 100% = plants have died, 0% = like control plants
How it was run: as §2

SETVI [20] = test: Post-emergence herbicidal action against SETVI; assay type: in vivo, Setaria viridis; details: dosage 20 g/ha
How it was run: as §2

[21] = 20 g/ha, scored visually after 3 weeks vs untreated controls, 100% = plants have died, 0% = like control plants
[22] = 80 g/ha, scored visually after 3 weeks vs untreated controls (100% = plants have died, 0% = like control plants)

SMILES	Pre-emergence action against VERPE in % (VERPE [1]) [%]	Post-emergence action against ECHCG in % (ECHCG [2]; dosage 20 g/ha) [%]	Post-emergence action against PHBPU in % (PHBPU [3]) [%]	Pre-emergence action against MATIN in % (MATIN [4]; dosage 20 g/ha) [%]	Pre-emergence action against MATIN in % (MATIN [4]; dosage 80 g/ha) [%]	Pre-emergence action against ALOMY (herbicidal activity) (ALOMY [5]) [%]	Post-emergence action against VIOTR in % (VIOTR [6]; 20 g/ha) [%]	Post-emergence action against ALOMY in % (ALOMY [7]) [%]	Pre-emergence action against ABUTH (herbicidal activity) (ABUTH [8]) [%]	Pre-emergence action against ABUTH (herbicidal activity in percent) (ABUTH [8]) [%]	Pre-emergence action against PHBPU in % (PHBPU [9]) [%]	Pre-emergence action against SETVI in % (SETVI [10]) [%]	Post-emergence action against VERPE in % (VERPE [11]; 20 g/ha) [%]	Pre-emergence action against VIOTR in % (VIOTR [12]; dosage 80 g/ha) [%]	Post-emergence action against MATIN in % (MATIN [13]; dosage 5 g/ha) [%]	Post-emergence action against MATIN in % (MATIN [13]; dosage 20 g/ha) [%]	Pre-emergence action against POLCO in % (POLCO; dosage 80 g/ha) [%]	Pre-emergence action against DIGSA in % (DIGSA [14]; dosage 20 g/ha) [%]	Pre-emergence action against DIGSA in % (DIGSA [14]; dosage 80 g/ha) [%]	Pre-emergence action against ECHCG in % (ECHCG [15]) [%]	also measured
CCn1nnnc1NC(=O)c1ccc(Br)c(C(=O)NC(C)C2CC2)c1Cl (stereo not shown) [Example 2-183]	90	90	80	90	100	90	100	80	100	100	90	100	90	100	80	90	90	90	100	90	Post-emergence action against VIOTR in % (VIOTR [6]; 5 g/ha): 100%; Pre-emergence action against POLCO in % (POLCO; dosage 20 g/ha): 90%; Pre-emergence action against AVEFA in % (AVEFA): 80%; Pre-emergence action against AMARE in % (AMARE [16]; [21]): 90%; Pre-emergence action against AMARE in % (AMARE [16]; [22]): 100%
CCn1nnnc1NC(=O)c1ccc(C(F)(F)F)c(C(=O)NCC2CC2)c1C1CC1 [Example 2-289]	100	90	90	90	100	90	90	90	100	100	80	90	100	100	80	90	80	100	100	100	Post-emergence action against ECHCG in % (ECHCG [2]; dosage 5 g/ha): 80%; Post-emergence action against ABUTH in % (ABUTH [17]): 80%; Post-emergence action against VERPE in % (VERPE [11]; 5 g/ha): 80%; Pre-emergence action against VIOTR in % (VIOTR [12]; dosage 20 g/ha): 100%; Post-emergence action against DIGSA in % (DIGSA [18]; 5 g/ha): 90%; Post-emergence action against DIGSA (DIGSA [18]; 20 g/ha): 100%; Post-emergence action at 20 g/ha against AMARE in % (AMARE [19]): 100%; Post-emergence action against SETVI in % (SETVI [20]): 80%; Pre-emergence action against AMARE in % (AMARE [16]; [21]): 100%; Pre-emergence action against AMARE in % (AMARE [16]; [22]): 100%
